The text below walks through data of US5880130A, “4,6-dianilino-pyrimidine derivatives, their preparation and their use as tyrosine kinase inhibitors” (Zeneca Limited, priority 1993, dated 1999).

A value given as a limit tells only on which side of the number the result lay.

Assay [1] has as its system human naso-pharyngeal cancer cell line KB. The assay is described as follows: Test (b): inhibition of EGF-stimulated growth of the cancer cell line KB. It counts as cell-based. The settings on record: 72 h, KB cell growth with EGF (10 ng/ml), 3 days, MTT. As to the method:
(b) An in vitro assay which determines the ability of a test compound to inhibit the EGF-stimulated growth of the human naso-pharyngeal cancer cell line KB.
KB cells were seeded into wells at a density of 1×10^4 -1.5×10^4 cells per well and grown for 24 hours in DMEH supplemented with 5% FCS (charcoal-stripped). Cell growth was determined after incubation for 3 days by the extent of metabolism of MTT tetrazolium dye to furnish a bluish colour. Cell growth was then determined in the presence of EGF (10 ng/ml) or in the presence of EGF (10 ng/ml) and a test compound at a range of concentrations. An IC50 value could then be calculated.

The next assay relates to liver hepatocyte growth. As to the kind of experiment: Test (c): inhibition of TGFα-stimulated liver hepatocyte growth in rats. The assay is classed as in vivo. The settings on record: Rattus norvegicus, male rats, usually oral, TGFα 400 μg/kg subcutaneously, BrdU uptake, approximate ED50. As to the method:
(c) An in vivo assay in a group of male rats which determines the ability of a test compound (usually administered orally as a ball-milled suspension in 0.5% polysorbate) to inhibit the stimulation of liver hepatocyte growth caused by the administration of the growth factor TGFα (400 μg/kg subcutaneously, usually dosed twice, 3 and 7 hours respectively after the administration of the test compound).
In a control group of rats, the administration of TGFα causes on average a 5-fold stimulation of liver hepatocyte growth.
Cell-growth in the control and test animals is determined as follows:
On the morning of the day after the dosing of the test compound (or 0.5% polysorbate in the control group), the animals are dosed with bromodeoxyuridine (BrdU; 100 mg/kg intraperitoneally). The animals are killed four hours later and the livers are excised. […] Further tests were carried out using a range of doses of the test compounds to allow the calculation of an approximate ED50 value for the inhibition of liver hepatocyte proliferation as determined by inhibition of the uptake of BrdU.

Assay [2] has as its target T1, EGF receptor tyrosine kinase (Homo sapiens, UniProt P00533).
T1 construct: Receptor tyrosine kinase was obtained in partially purified form from A-431 cells; endogenous in cells; host or cells: A-431 cells (human vulval carcinoma); Triton X-100 solubilised membrane fraction
As to the kind of experiment: Test (a): in vitro inhibition of EGF receptor tyrosine kinase. Conditions: A-431 cell enzyme, [γ-32P]ATP/peptide phosphorylation, 25° C. 10 minutes. The assay is classed as biochemical, human (A-431 cells, derived from human vulval carcinoma). As to the method: (a) An in vitro assay which determines the ability of a test compound to inhibit the enzyme EGF receptor tyrosine kinase. Receptor tyrosine kinase was obtained in partially purified form from A-431 cells (derived from human vulval carcinoma) by procedures related to those described by Carpenter et al., J. Biol. Chem., 1979, 254, 4884, Cohen et al., J. Biol. Chem., 1982, 257, 1523 and by Braun et al., J. Biol. Chem., 1984, 259, 2051.
A-431 cells were grown to confluence using Dulbecco's modified Eagle's medium (DMEM) containing 5% fetal calf serum (FCS). The obtained cells were homogenised in a hypotonic borate/EDTA buffer at pH 10.1. The homogenate was centrifuged at 400 g for 10 minutes at 0°-4° C. The supernatant was centrifuged at 25,000 g for 30 minutes at 0°-4° C. […]
The test compound/EGF mixture solution (5 μl) was added to the test enzyme solution (10 μl) and the mixture was incubated at 0-4° C. for 30 minutes. […] Radioactivity present in the filter paper was measured using a liquid scintillation counter (Sequence A). […]
Receptor tyrosine kinase inhibition was calculated as follows: [formula]
The extent of inhibition was then determined at a range of concentrations of test compound to give an IC50 value.

Assay [3] deals with transplanted human mammary carcinoma which expresses EGF receptor tyrosine kinase. Conditions: athymic nude mice; Toi et al. 1990; cited from earlier work.
Assay [4] concerns another carcinoma which does not express EGF receptor tyrosine kinase. Conditions: Toi et al. 1990; cited from earlier work.

T1 sequence (P00533 25-1210): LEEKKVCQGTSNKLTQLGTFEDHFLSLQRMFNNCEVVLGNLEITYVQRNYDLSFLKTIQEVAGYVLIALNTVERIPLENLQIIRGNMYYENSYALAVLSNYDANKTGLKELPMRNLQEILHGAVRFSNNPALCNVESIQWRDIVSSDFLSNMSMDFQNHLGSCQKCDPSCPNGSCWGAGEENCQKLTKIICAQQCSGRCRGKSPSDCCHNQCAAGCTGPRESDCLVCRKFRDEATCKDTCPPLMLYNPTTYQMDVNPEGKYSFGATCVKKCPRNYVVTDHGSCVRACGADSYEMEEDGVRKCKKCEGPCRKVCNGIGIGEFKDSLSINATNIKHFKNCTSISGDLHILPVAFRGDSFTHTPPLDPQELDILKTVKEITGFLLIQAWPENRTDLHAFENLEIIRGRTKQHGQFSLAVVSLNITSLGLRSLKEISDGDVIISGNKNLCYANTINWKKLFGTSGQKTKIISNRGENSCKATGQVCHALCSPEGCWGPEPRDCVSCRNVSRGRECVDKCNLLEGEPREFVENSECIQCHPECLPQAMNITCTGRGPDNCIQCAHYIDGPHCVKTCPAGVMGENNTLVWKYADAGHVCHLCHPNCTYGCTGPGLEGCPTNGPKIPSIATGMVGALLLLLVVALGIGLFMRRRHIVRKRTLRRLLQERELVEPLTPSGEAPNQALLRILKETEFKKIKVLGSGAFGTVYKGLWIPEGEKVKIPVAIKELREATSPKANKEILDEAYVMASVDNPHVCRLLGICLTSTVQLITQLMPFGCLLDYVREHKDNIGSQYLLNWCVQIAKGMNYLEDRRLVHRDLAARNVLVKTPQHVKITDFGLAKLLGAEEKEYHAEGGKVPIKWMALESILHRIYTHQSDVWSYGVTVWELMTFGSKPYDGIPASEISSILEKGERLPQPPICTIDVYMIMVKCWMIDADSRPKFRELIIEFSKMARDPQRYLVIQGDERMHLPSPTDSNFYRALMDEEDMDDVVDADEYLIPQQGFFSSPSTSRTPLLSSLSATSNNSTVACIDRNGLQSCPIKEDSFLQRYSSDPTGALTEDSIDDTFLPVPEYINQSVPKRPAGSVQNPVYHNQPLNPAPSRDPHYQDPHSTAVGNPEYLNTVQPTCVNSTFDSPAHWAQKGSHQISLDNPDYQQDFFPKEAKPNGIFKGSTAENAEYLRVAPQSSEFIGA

As a reminder, the IC50 is the concentration at which inhibition is half-maximal. One may read the ED50 as the midpoint of the dose-response relation. With `Cc1cccc(Nc2cc(Nc3cccc(C)c3)ncn2)c1` [4,6-di-(3'-methylanilino)pyrimidine], the results for the IC50 in assay [1] and in assay [2] were 1.1 µM and 0.24 µM, respectively. In addition, the ED50 with liver hepatocyte growth was < 12.5 mg/kg.

Turning to `Cc1cccc(Nc2cc(Nc3ccc(OCCO)cc3)ncn2)c1` [4-[4'-(2-hydroxyethoxy)anilino]6-(3'-methylanilino)pyrimidine], half-maximal inhibition in assay [1] (IC50) required 1.07 µM. For the same compound, the ED50 in the assay on liver hepatocyte growth was < 12.5 mg/kg.

Regarding `Cc1cccc(Nc2cc(Nc3ccc(OCC(O)CN(C)C)cc3)ncn2)c1` (stereo not drawn) [4-[4'-(3-dimethylamino-2-hydroxypropoxy)anilino]6-(3'-methylanilino)pyrimidine], the IC50 in assay [1] was found to be 0.31 µM; in assay [2], 0.01 µM.

For `O=CN/C=C/c1cc(O)ccc1O` [erbstatin], in assay [3], the “effect on growth of transplanted human mammary carcinoma expressing EGF receptor tyrosine kinase” value is given as “specifically attenuates the growth”. The “effect on growth of another carcinoma which does not express EGF receptor tyrosine kinase” value in assay [4] is reported as “without effect on the growth”.
